Experimental data: US8846668B2, “Inhibitors of 11beta-hydroxysteroid dehydrogenase 1” (Vitae Pharmaceuticals, Inc., priority 2008, dated 2014)

Experiments:
[1] = molecular target: T1, 11β-HSD1 (human liver microsomes) (Homo sapiens, UniProt P28845); assay: In vitro inhibition of 11β-HSD1, HTRF detection of cortisol generated by human liver microsomes; type: biochemical; conditions: 100% indicates no inhibition, zero or below zero indicates complete inhibition; for remaining activity at 0.1 µM: 100 nM inhibitor, 1 hour at 37° C., read-out: Average % control inhibition at 100 nM; for remaining activity at 1 µM: 1 μM inhibitor (footnote *), read-out: Average % control inhibition (1 μM inhibitor concentration)
T1 construct: detecting cortisol generated from cortisterone by human liver microsomes; from tissue; host or cells: human liver microsomes
T1 sequence (P28845 whole entry): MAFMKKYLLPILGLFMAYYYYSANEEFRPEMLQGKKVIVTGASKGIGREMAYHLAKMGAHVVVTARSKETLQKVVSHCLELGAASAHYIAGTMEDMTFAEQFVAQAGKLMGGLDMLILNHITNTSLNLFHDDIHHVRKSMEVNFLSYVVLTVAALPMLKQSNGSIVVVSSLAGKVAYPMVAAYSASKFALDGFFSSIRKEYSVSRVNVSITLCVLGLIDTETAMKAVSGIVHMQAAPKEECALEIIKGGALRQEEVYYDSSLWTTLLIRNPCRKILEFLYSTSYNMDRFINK
Method: Briefly, compounds were incubated for 1 hour at 37° C. in Tris buffer (20 mM tris, 5 mM EDTA, pH 6.0) containing NADPH (200 μM) and cortisone (80 nM). Cortisol generated in the reaction is then detected with a competitive immunoassay, involving two HTRF conjugates: cortisol linked to XL665 and anti-cortisol antibody labeled with Europium cryptate. The incubation period for detection reaction was typically 2 hours. […] The ratio of the two emission signals is then calculated (Em665*10000/Em615). […] Each assay also contained a calibration curve with cortisol to transform the fluorescent data into cortisol concentrations. Percent inhibition of each compound was determined relative to the carbenoxolone signal.

[2] = molecular target: T2, human 11β-HSD1 (microsomes isolated from CHO cells overexpressing human 11β-HSD1) (Homo sapiens, UniProt P28845); assay: Inhibition of a microsomal preparation of 11β-HSD1, scintillation proximity assay; type: biochemical; conditions: microsomes from CHO cells overexpressing human 11β-HSD1; [3H]cortisone, SPA, 90 minutes at rt
T2 construct: expressed in transfected cells; host or cells: CHO cells (microsomes)
T2 sequence (P28845 whole entry): as above
Method: All reactions were carried out at rt in 96 well clear flexible PET Microbeta plates (PerkinElmer). […] After a 10 minute pre-incubation, 50 μL of enzyme solution containing microsomes isolated from CHO cells overexpressing human 11β-HSD1 (10-20 μg/ml of total protein) was added, and the plates were incubated for 90 minutes at rt. […] The plates were shaken for 120 minutes at rt, and the SPA signal corresponding to [^3H]cortisol was measured on a Microbeta plate reader.

Row | Structure (SMILES) | remaining activity at 0.1 µM [1] [%] | other results
1 | C[C@@H](c1ccc(-c2ccc(C(=O)N(C)C)nc2)cc1)N1CC[C@](CC(C)(C)O)(c2ccccc2)OC1=O [Example 17, (4-{(S)-1-[(S)-6-(2-Hydroxy-2-methyl-propyl)-2-oxo-6-phenyl-[1,3]oxazinan-3-yl]-ethyl}-phenyl)-pyridine-2-carboxylic acid dimethylamide] | -10 | 
2 | C[C@@H](c1ccc(C2CCN(S(C)(=O)=O)CC2)cc1)N1CC[C@](CC(C)(C)O)(c2ccccc2)OC1=O [Example 22, (S)-6-(2-Hydroxy-2-methyl-propyl)-3-{(S)-1-[4-(1-methanesulfonyl-piperidin-4-yl)-phenyl]-ethyl}-6-phenyl-[1,3]oxazinan-2-one] | 17 | 
3 | C[C@@H](c1ccc(C2CCN(C(=O)[C@H]3CCCO3)CC2)cc1)N1CC[C@](CC(C)(C)O)(c2ccccc2)OC1=O [Example 24, (S)-6-(2-Hydroxy-2-methyl-propyl)-6-phenyl-3-((S)-1-{4-[1-((R)-tetrahydro-furan-2-carbonyl)-piperidin-4-yl]-phenyl}-ethyl)-[1,3]oxazinan-2-one] | 53 | 
4 | C[C@@H](c1ccc(C2CCC(=O)N(C)C2)cc1)N1CC[C@](CC(C)(C)O)(c2ccccc2)OC1=O (stereo partly drawn) [Example 34, (S)-6-(2-Hydroxy-2-methyl-propyl)-3-{(S)-1-[4-(1-methyl-6-oxo-piperidin-3-yl)-phenyl]-ethyl}-6-phenyl-[1,3]oxazinan-2-one] |  | remaining activity at 1 µM [1]: -17%
5 | CCNC(=O)c1ccc(-c2ccc([C@H](C)N3CC[C@](CC(C)(C)O)(c4ccccc4)OC3=O)cc2)cn1 [Example 15, 5-(4-{(S)-1-[(S)-6-(2-Hydroxy-2-methyl-propyl)-2-oxo-6-phenyl-[1,3]oxazinan-3-yl]-ethyl}-phenyl)-pyridine-2-carboxylic acid ethylamide] | -34 | 
6 | Cc1nc2cc(-c3ccc([C@H](C)N4CCC(CC(C)(C)O)(C(C)C)OC4=O)cc3)ccc2n1C (single isomer, unassigned) [Example 37] |  | IC50 [2]: 6.9 nM
7 | C[C@@H](c1ccc(C2CCN(C(=O)[C@H]3CCCN3C)CC2)cc1)N1CC[C@](CC(C)(C)O)(c2ccccc2)OC1=O [Example 27, (S)-6-(2-Hydroxy-2-methyl-propyl)-3-((S)-1-{4-[1-((R)-1-methyl-pyrrolidine-2-carbonyl)-piperidin-4-yl]-phenyl}-ethyl)-6-phenyl-[1,3]oxazinan-2-one] | 86 | 
8 | C[C@@H](c1ccc(C2CCNCC2)cc1)N1CC[C@](CC(C)(C)O)(c2ccccc2)OC1=O [Example 18, (S)-6-(2-Hydroxy-2-methyl-propyl)-6-phenyl-3-[(S)-1-(4-piperidin-4-yl-phenyl)-ethyl]-[1,3]oxazinan-2-one] | 93 | 
9 | CNC(=O)c1ccc(-c2ccc([C@H](C)N3CC[C@](CC(C)(C)O)(c4ccccc4)OC3=O)cc2)cn1 [Example 16, 5-(4-{(S)-1-[(S)-6-(2-Hydroxy-2-methyl-propyl)-2-oxo-6-phenyl-[1,3]oxazinan-3-yl]-ethyl}-phenyl)-pyridine-2-carboxylic acid methylamide] | -24 | 
10 | C[C@@H](c1ccc(C2CCN(C)CC2)cc1)N1CC[C@](CC(C)(C)O)(c2ccccc2)OC1=O [Example 21, (S)-6-(2-Hydroxy-2-methyl-propyl)-3-{(5)-1-[4-(1-methyl-piperidin-4-yl)-phenyl]-ethyl}-6-phenyl-[1,3]oxazinan-2-one] | 97 | 
11 | C[C@@H](c1ccc(C2CCN(C(=O)C(C)(C)O)CC2)cc1)N1CC[C@](CC(C)(C)O)(c2ccccc2)OC1=O [Example 25, (S)-6-(2-Hydroxy-2-methyl-propyl)-6-phenyl-3-((S)-1-{4-[1-(2-hydroxy-2-propyl-carbonyl)-piperidin-4-yl]-phenyl}-ethyl)-[1,3]oxazinan-2-one] | 71 | 
12 | CC(C)C1(CC(C)(C)O)CCN([C@@H](C)c2ccc(-c3ccc4c(c3)ncn4C)cc2)C(=O)O1 (stereo partly drawn) [Example 38, 6-(2-hydroxy-2-methylpropyl)-6-isopropyl-3-{(S)-1-[4-(1-methyl-1H-benzo[d]imidazol-5-yl)phenyl]ethyl}-1,3-oxazinan-2-one] |  | IC50 [2]: 7.7 nM
13 | CNC(=O)N1CCC(c2ccc([C@H](C)N3CC[C@](CC(C)(C)O)(c4ccccc4)OC3=O)cc2)CC1 [Example 35, 4-(4-{(S)-1-[(S)-6-(2-Hydroxy-2-methyl-propyl)-2-oxo-6-phenyl-[1,3]oxazinan-3-yl]-ethyl}-phenyl)-piperidine-1-carboxylic acid methylamide] | 1 | 
14 | C[C@@H](c1ccc(C2CCN(C(=O)[C@@H]3CCCN3C)CC2)cc1)N1CC[C@](CC(C)(C)O)(c2ccccc2)OC1=O [Example 26, (S)-6-(2-Hydroxy-2-methyl-propyl)-3-((S)-1-{4-[1-((S)-1-methyl-pyrrolidine-2-carbonyl)-piperidin-4-yl]-phenyl}-ethyl)-6-phenyl-[1,3]oxazinan-2-one] | 80 | 
15 | C[C@@H](c1ccc(C2CCN(C(=O)N(C)C)CC2)cc1)N1CC[C@](CC(C)(C)O)(c2ccccc2)OC1=O [Example 36, 4-((S)-4-{1-[(S)-6-(2-Hydroxy-2-methyl-propyl)-2-oxo-6-phenyl-[1,3]oxazinan-3-yl]-ethyl}-phenyl)-piperidine-1-carboxylic acid dimethylamide] | 31 | 
16 | C[C@@H](c1ccc(C2CCN(C)C(=O)C2)cc1)N1CC[C@](CC(C)(C)O)(c2ccccc2)OC1=O (stereo partly drawn) [Example 33, (S)-6-(2-Hydroxy-2-methyl-propyl)-3-{(S)-1-[4-(1-methyl-2-oxo-piperidin-4-yl)-phenyl]-ethyl}-6-phenyl-[1,3]oxazinan-2-one] |  | remaining activity at 1 µM [1]: -27%
17 | C[C@@H](c1ccc(C2CCN(C(=O)[C@@H]3CCCO3)CC2)cc1)N1CC[C@](CC(C)(C)O)(c2ccccc2)OC1=O [Example 23, (S)-6-(2-Hydroxy-2-methyl-propyl)-6-phenyl-3-((S)-1-{4-[1-((S)-tetrahydro-furan-2-carbonyl)-piperidin-4-yl]-phenyl}-ethyl)-[1,3]oxazinan-2-one] | 44 | 
